23 compounds from US9365541B2, “Compounds for use in the treatment of parasitic diseases” (IRBM—SCIENCE PARK S.P.A., priority 2012, dated 2016) can be followed below.

The target of assay [1] is T1, human HDAC1 (Homo sapiens, UniProt Q13547).
T1 construct: made in house; host or cells: HeLa (ATCC CCL-2), mammalian cells
Description: Homo sapiens HDAC1 inhibition assay (Fluor-de-Lys, enzymatic). The assay is classed as biochemical. Conditions: human HDAC enzymatic assay; read-out: hHDAC IC50. The procedure, abridged: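 Fluorogenic deacetylation read-out: trypsin developer, supplemented with 2 μM final TSA as stop, releases fluorophore from deacetylated substrate.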

The test system of assay [2] is Plasmodium falciparum 3D7. Description: P. falciparum growth inhibition assay (Pf-LDH). The assay is classed as cell-based. Conditions: Plasmodium falciparum, Erythrocyte; P. falciparum 3D7 infected erythrocytes, 72 h incubation, PfLDH readout. The essentials: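 Compounds were tested against 72 h cultures of the 3D7 strain (0.25% parasitemia, 2% hematocrit, 37° C, low-oxygen gas). Parasite growth was quantified as lactate dehydrogenase activity via NBT reduction, absorbance 650 nm, after freezing and thawing.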

T1 sequence (Q13547 whole entry): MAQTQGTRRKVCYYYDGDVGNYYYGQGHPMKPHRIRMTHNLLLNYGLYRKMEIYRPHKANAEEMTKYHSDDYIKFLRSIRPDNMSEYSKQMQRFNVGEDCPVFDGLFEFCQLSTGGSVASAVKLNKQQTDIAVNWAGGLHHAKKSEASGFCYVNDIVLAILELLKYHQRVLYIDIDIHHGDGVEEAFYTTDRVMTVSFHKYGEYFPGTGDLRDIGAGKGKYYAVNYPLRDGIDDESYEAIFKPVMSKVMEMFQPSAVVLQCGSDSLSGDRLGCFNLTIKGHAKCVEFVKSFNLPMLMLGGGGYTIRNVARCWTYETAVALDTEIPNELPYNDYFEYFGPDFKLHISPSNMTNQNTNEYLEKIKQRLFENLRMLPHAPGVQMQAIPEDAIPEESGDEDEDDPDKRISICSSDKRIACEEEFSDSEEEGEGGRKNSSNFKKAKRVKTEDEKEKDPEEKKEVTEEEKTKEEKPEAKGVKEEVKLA

`CNC(=O)CCCCC[C@H](NC(=O)C1CCC1(F)F)c1ncc(-c2ccc(-c3ccn(C)n3)cc2)[nH]1` (stereo partly drawn) [Entry 91, 2,2-difluoro-N-((S)-1-(5-(4-(1-methyl-1H-pyrazol-3-yl)phenyl)-1H-imidazol-2-yl)-7-(methylamino)-7-oxo-heptyl)cyclobutane-carboxamide]: the IC50 in assay [1] is > 5 µM. In assay [2], the EC50 was > 5 µM.
With `CNC(=O)CCCCC[C@H](NC(=O)CC1=CSC2=NCCCN12)c1ncc(-c2ccc(-c3ccn(C)n3)cc2)[nH]1` [Entry 92, (S)-7-(2-(6,7-dihydro-5H-thiazolo[3,2-a]pyrimidin-3-yl)acetamido)-N-methyl-7-(5-(4-(1-methyl-1H-pyrazol-3-yl)phenyl)-1H-imidazol-2-yl)heptanamide], the IC50 in assay [1] fell in the range of 1 to 5 µM. In addition, the EC50 in assay [2] was > 5 µM.
As for `CNC(=O)CCCCC[C@H](NC(=O)OCc1ccccc1)c1ncc(-c2ccc3ccncc3c2)[nH]1` [Entry 93, (S)-benzyl (1-(5-(isoquinolin-7-yl)-1H-imidazol-2-yl)-7-(methylamino)-7-oxoheptyl)carbamate], the IC50 in assay [1] was < 1 µM. Also, the EC50 in assay [2] is < 1 µM.
Take `CCc1nc2ccccc2n1CCC(=O)N[C@@H](CCCCCC(=O)NC)c1nnc(-c2ccc3ccccc3c2)o1` [Entry 94, (S)-7-(3-(2-ethyl-1H-benzo[d]imidazol-1-yl)propanamido)-N-methyl-7-(5-(naphthalen-2-yl)-1,3,4-oxadiazol-2-yl)heptanamide]: the IC50 in assay [1] lay in the range of 1 to 5 µM. The EC50 in assay [2] lay within 1 to 5 µM.
For `CNC(=O)CCCCC[C@H](NC(=O)c1cncs1)c1ncc(-c2ccc3ccccc3c2)[nH]1` [Entry 95, (S)-N-(7-(methylamino)-1-(5-(naphthalen-2-yl)-1H-imidazol-2-yl)-7-oxo-heptyl)thiazole-5-carboxamide], the IC50 in assay [1] was < 1 µM. The EC50 in assay [2] was < 1 µM.
On to `CNC(=O)CCCCC[C@H](NC(=O)c1cncs1)c1ncc(-c2cc3ccccc3cc2OC)[nH]1` [Entry 97, (S)-N-(1-(5-(3-methoxynaphthalen-2-yl)-1H-imidazol-2-yl)-7-(methylamino)-7-oxoheptyl)thiazole-5-carboxamide], for which the IC50 in assay [1] was < 1 µM. In assay [2], the EC50 was < 1 µM.
Take `CNC(=O)CCCCC[C@H](NC(=O)C1CN(C)C1)c1ncc(-c2cc3ccccc3nc2OC)[nH]1` [Entry 98, (S)-N-(1-(5-(2-methoxyquinolin-3-yl)-1H-imidazol-2-yl)-7-(methylamino)-7-oxoheptyl)-1-methylazetidine-3-carboxamide]: the IC50 in assay [1] was 1 to 5 µM. In assay [2], this compound gave an EC50 of 1 to 5 µM.
With `CNC(=O)CCCCC[C@H](NC(=O)CCN1CCCCC1)c1ncc(-c2cc3ccccc3nc2OC)[nH]1` [Entry 99], the IC50 in assay [1] is < 1 µM. In assay [2], this compound yielded an EC50 of 1 to 5 µM.
In the case of `CNC(=O)CCCCC[C@H](NC(=O)C12CC3CC(CC(C3)C1)C2)c1ncc(-c2ccc(C(F)(F)F)cc2)[nH]1` [Entry 100], the IC50 in assay [1] is > 5 µM. This compound also showed an EC50 in assay [2] of 1 to 5 µM.
Taken in the same sequence, the figures for `CNC(=O)CCCCC[C@H](NC(=O)CCN1CCCCC1)c1ncc(-c2ccc(C(F)(F)F)cc2)[nH]1` [Entry 101, (S)-N-methyl-7-(3-(piperidin-1-yl)propanamido)-7-(5-(4-(trifluoro-methyl)phenyl)-1H-imidazol-2-yl)heptanamide] were > 5 µM and 1 to 5 µM.
On to `CNC(=O)CCCCC[C@H](NC(=O)c1nc[nH]n1)c1ncc(-c2cc3ccccc3nc2OC)[nH]1` [Entry 102, (S)-N-(1-(5-(2-methoxyquinolin-3-yl)-1H-imidazol-2-yl)-7-(methylamino)-7-oxoheptyl)-1H-1,2,4-triazole-3-carboxamide], for which the IC50 in assay [1] was > 5 µM. Moreover, the EC50 in assay [2] is > 5 µM.
For the compound `CNC(=O)CCCCC[C@H](NC(=O)C(C)n1cccn1)c1ncc(-c2cc3ccccc3nc2OC)[nH]1` (stereo partly shown) [Entry 103], the IC50 in assay [1] is > 5 µM. The compound further came in with an EC50 in assay [2] of 1 to 5 µM.
On to `CNC(=O)CCCCC[C@H](NC(=O)[C@@H]1CCCN1C)c1ncc(-c2cc3ccccc3nc2OC)[nH]1` [Entry 104, (S)-N-((S)-1-(5-(2-methoxyquinolin-3-yl)-1H-imidazol-2-yl)-7-(methylamino)-7-oxoheptyl)-1-methylpyrrolidine-2-carboxamide], for which, in assay [1], the IC50 was > 5 µM. In addition, in assay [2], the EC50 is > 5 µM.
Turning to `CNC(=O)CCCCC[C@H](NC(=O)c1cncs1)c1ncc(-c2ccc3cc(OC)ncc3c2)[nH]1` [Entry 105, (S)-N-(1-(5-(3-methoxyisoquinolin-7-yl)-1H-imidazol-2-yl)-7-(methylamino)-7-oxoheptyl)thiazole-5-carboxamide], the IC50 in assay [1] was < 1 µM. Also, the EC50 in assay [2] was < 1 µM.
As for `CNC(=O)CCCCC[C@H](NC(=O)Cc1ccccn1)c1ncc(-c2cc3ccccc3nc2OC)[nH]1` [Entry 106], in assay [1], the IC50 was 1 to 5 µM. Further, the EC50 in assay [2] was > 5 µM.
Turning to `CNC(=O)CCCCC[C@H](NC(=O)c1cncs1)c1ncc(-c2ccc3nc(OC)ccc3c2)[nH]1` [Entry 107, (S)-N-(1-(5-(2-methoxyquinolin-6-yl)-1H-imidazol-2-yl)-7-(methylamino)-7-oxoheptyl)thiazole-5-carboxamide], the IC50 in assay [1] was < 1 µM. Moreover, in assay [2], the EC50 is < 1 µM.
In the case of `CNC(=O)CCCCC[C@H](NC(=O)c1cncs1)c1ncc(-c2ccc(-c3ccccc3)cc2)[nH]1` [Entry 108, (S)-N-(1-(5-([1,1′-biphenyl]-4-yl)-1H-imidazol-2-yl)-7-(methylamino)-7-oxoheptyl)thiazole-5-carboxamide], the IC50 in assay [1] was > 5 µM. In addition, the EC50 in assay [2] is > 5 µM.
In the case of `CNC(=O)CCCCC[C@H](NC(=O)c1cncs1)c1ncc(-c2ccc(-c3cccs3)cc2)[nH]1` [Entry 109, (S)-N-(7-(methylamino)-7-oxo-1-(5-(4-(thiophen-2-yl)phenyl)-1H-imidazol-2-yl)heptyl)thiazole-5-carboxamide], in assay [1], the IC50 was in the range of 1 to 5 µM. This compound also showed an EC50 in assay [2] of 1 to 5 µM.
In the case of `CNC(=O)CCCCC[C@H](NC(=O)Cc1cnc2ccccc2c1)c1ncc(-c2ccc(-n3cccn3)cc2)[nH]1` [Entry 110], the IC50 in assay [1] was < 1 µM. The compound also yielded an EC50 in assay [2] of 1 to 5 µM.
`CNC(=O)CCCCC[C@H](NC(=O)C1(F)CCN(C)CC1)c1ncc(-c2ccc3ccncc3c2)[nH]1` [Entry 111, (S)-4-fluoro-N-(1-(5-(isoquinolin-7-yl)-1H-imidazol-2-yl)-7-(methylamino)-7-oxoheptyl)-1-methylpiperidine-4-carboxamide]: the IC50 in assay [1] fell in the range of 1 to 5 µM. Further, the EC50 in assay [2] is > 5 µM.
`CNC(=O)CCCCC[C@H](NC(=O)c1cncs1)c1ncc(-c2ccc3[nH]nnc3c2)[nH]1` [Entry 112, (S)-N-(1-(5-(1H-benzo[d][1,2,3]triazol-5-yl)-1H-imidazol-2-yl)-7-(methylamino)-7-oxoheptyl)thiazole-5-carboxamide]: in assay [1], the half-maximal inhibitory concentration (IC50) is > 5 µM. The EC50 in assay [2] is > 5 µM.
For `CNC(=O)CCCCC[C@H](NC(=O)Cc1cnccn1)c1ncc(-c2ccc3ccccc3c2)[nH]1` [Entry 113], in assay [1], the IC50 lay within 1 to 5 µM. The compound further registered an EC50 in assay [2] of 1 to 5 µM.
For `CNC(=O)CCCCC[C@H](NC(=O)c1ccc2cnccc2c1)c1ncc(-c2ccc3ccccc3c2)[nH]1` [Entry 114, (S)-N-(7-(methylamino)-1-(5-(naphthalen-2-yl)-1H-imidazol-2-yl)-7-oxo-heptyl)isoquinoline-6-carboxamide], in assay [1], the IC50 fell in the range of 1 to 5 µM. Further, the EC50 in assay [2] lay in the range of 1 to 5 µM.
